Paper PMC2994023 (Interdisciplinary Toxicology, 2010)

Tests used:
CYP = CYP concentration in hepatic microsomes of induced rats (CO complex of reduced CYP); details: hepatic microsomes of rats induced with the agent
Protocol: (§1) The study was conducted in accordance with the Regulations for the Care and Use of Laboratory Animals (311/1997, Ministry of Agriculture, Czech Republic), which complies with Declaration of Helsinki. Microsomes from livers of ten untreated rats and three rabbits were prepared by the procedure described previously (Stiborová et al., [1988]). Microsomes from the livers of ten male Wistar rats pretreated with β-NF (Stiborová et al., [1988]) were isolated as described (Stiborová et al., [1988]; [1995]), those pretreated with phenobarbital (PB) as reported by Hodek et al. ([1988]), and those pretreated with ethanol were isolated using a procedure described by Yang et al. ([1985]). Protein concentrations in the microsomal fractions were assessed using the bicinchoninic acid protein assay with bovine serum albumin as a standard (Wiechelman et al., [1988]). The concentration of CYP was estimated according to Omura and Sato ([1964]), by measuring the absorption of the complex of reduced CYP with carbon monoxide. […] The activity of NADPH:CYP reductase in rat hepatic microsomes was measured according to Sottocasa et al. ([1967]) using cytochrome c as substrate (i.e., as NADPH:cytochrome c reductase).

NADPH:CYP reductase = NADPH:CYP reductase activity in hepatic microsomes of induced rats (cytochrome c as substrate); details: hepatic microsomes of rats induced with the agent
Protocol: as §1

rat hepatic microsomes = assay: Metabolism of N-(2-methoxyphenyl)hydroxylamine by hepatic microsomes of control (uninduced) rats, HPLC of metabolites; type: in vitro ADME; details: 1.0 mM substrate
Protocol: as §1

[1] = test system: rat hepatic microsomes enriched with CYP2E1; assay: Metabolism of N-(2-methoxyphenyl)hydroxylamine by hepatic microsomes of rats pre-treated with ethanol; type: in vitro ADME
Protocol: as §1

[2] = Incubation of N-(2-methoxyphenyl)hydroxylamine without hepatic microsomal enzymes or without NADPH (spontaneous conversion); type: physicochemical; details: pH 7.4, without hepatic microsomal enzymes or without NADPH
Protocol: At pH 7.4, used for microsomal incubations, their spontaneous formation was negligible.

Sacchromyces cerevisiae = details: ref Brennan and Schiestl ([1997]); cited from earlier work

| SMILES | CYP content of hepatic microsomes (CYP) [nmol CYP/mg protein] | NADPH:CYP reductase activity in hepatic microsomes (NADPH:CYP reductase) [µmol/min/mg protein] | further results |
| --- | --- | --- | --- |
| O=c1cc(-c2ccccc2)oc2ccc3ccccc3c12 [β-NF, β-naphthoflavone] | 1.3 | 0.199 | – |
| CCO [ethanol] | 1.8 | 0.201 | – |
| COc1ccccc1NO [N-(2-methoxyphenyl)hydroxylamine] | – | – | formation of metabolite M1 (rat hepatic microsomes): negligible; change of levels of o-anisidine versus control microsomes [1]: decreased; spontaneous formation of metabolite M1 and o-aminophenol [2]: negligible |
| Nc1ccccc1O [o-aminophenol] | – | – | result in the deletion recombination assay (Sacchromyces cerevisiae): positive |
| CCC1(c2ccccc2)C(=O)NC(=O)NC1=O [PB, phenobarbital] | 2.7 | 0.325 | – |
